Results on 26 compounds are retold here after patent US12173026B2, “PRMT5 inhibitors” (Merck Sharp & Dohme LLC, priority 2018, dated 2024).

Broadly, the EC50 is the midpoint of the concentration-response curve. A higher EC50 goes with weaker potency.

The assay concerns symmetric dimethylation of arginine (SDMA) of PRMT5 substrates in MCF-7 cells. Description: PRMT5 Cell Target Engagement (TE) Assay. Format: cell-based. The following applies: Homo sapiens, MCF7, 72 h; MCF-7 cells treated for 3 days; nuclear SDMA by high content imaging; top concentration 10000 nM. The gist of the method: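 MCF-7 cells treated 3 days at 37 °C with 10-point 1:3 titration from 10000 nM top. Fixed cells stained with anti-SDMA antibody plus Alexa488 secondary and Hoechst; nuclear fluorescence quantified by high-content imaging versus DMSO wells. EC50 from 4-parameter fit of percent fluorescence vs log concentration.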

In the case of `Nc1nc2cc(C[C@@H]3CC[C@@]4(O)[C@@H]3C[C@@H](n3cc(F)c5c(N)ncnc53)[C@@H]4O)ccc2cc1Cl` [Example 34, (1S,2R,3aR,4S,6aR)-4-((2-amino-3-chloroquinolin-7-yl)methyl)-2-(4-amino-5-fluoro-7H-pyrrolo[2,3-d]pyrimidin-7-yl)hexahydropentalene-1,6a(1H)-diol], the half-maximal effective concentration (EC50) amounted to 0.3 nM.

As to `Nc1nc2cc(C[C@@H]3CC[C@@]4(O)[C@@H]3C[C@@H](n3cc(F)c5c(N)ncnc53)[C@@H]4O)ccc2cc1F` [Example 33, (1S,2R,3aR,4S,6aR)-4-((2-amino-3-fluoroquinolin-7-yl)methyl)-2-(4-amino-5-fluoro-7H-pyrrolo[2,3-d]pyrimidin-7-yl)hexahydropentalene-1,6a(1H)-diol], the half-maximal effective concentration (EC50) is 0.4 nM.

Compound `Nc1nc2cc(O[C@H]3CC[C@@]4(O)[C@@H]3O[C@@H](n3cc(F)c5c(N)ncnc53)[C@@H]4O)ccc2cc1F` [Example 73, (2R,3R,3aS,6S,6aR)-6-((2-amino-3-fluoroquinolin-7-yl)oxy)-2-(4-amino-5-fluoro-7H-pyrrolo[2,3-d]pyrimidin-7-yl)hexahydro-3aH-cyclopenta[b]furan-3,3a-diol] came in with an EC50 of 2 nM.

Take `Nc1nc2cc(O[C@H]3CC[C@@]4(O)[C@@H]3O[C@@H](n3ccc5c(Cl)ncnc53)[C@@H]4O)ccc2cc1Br` [Example 5, (2R,3R,3aS,6S,6aR)-6-((2-amino-3-bromoquinolin-7-yl)oxy)-2-(4-chloro-7H-pyrrolo[2,3-d]pyrimidin-7-yl)hexahydro-2H-cyclopenta[b]furan-3,3a-diol]: the EC50 came to 19 nM.

As for `Cc1nc(N)c2ccn([C@@H]3O[C@@H]4[C@H](Cc5ccc6cc(Br)c(N)nc6c5)CC[C@]4(O)[C@H]3O)c2n1` [Example 61, (2R,3R,3aS,6S,6aR)-2-(4-amino-2-methyl-7H-pyrrolo[2,3-d]pyrimidin-7-yl)-6-((2-amino-3 bromoquinolin-7-yl)methyl)hexahydro-3aH-cyclopenta[b]furan-3,3a-diol], the midpoint of the response, the EC50, lay at 3.2 nM.

`C[C@@]1(O)[C@@H](COc2ccc3cc(Br)c(N)nc3c2)O[C@@H](n2ccc3c(Cl)ncnc32)[C@@H]1O` [Example 11, (2R,3S,4R,5R)-2-{[(2-amino-3-bromoquinolin-7-yl)oxy]methyl}-5-(4-chloro-7H-pyrrolo[2,3-d]pyrimidin-7-yl)-3-methyltetrahydrofuran-3,4-diol] gave an EC50 of 131 nM.

Consider `Nc1nc2c(F)c(C[C@@H]3CC[C@@]4(O)[C@@H]3O[C@@H](n3ccc5c(N)ncnc53)[C@@H]4O)ccc2cc1F` [Example 20, (2R,3R,3aS,6S,6aR)-6-[(2-amino-3,8-difluoroquinolin-7-yl)methyl]-2-(4-amino-7H-pyrrolo[2,3-d]pyrimidin-7-yl)hexahydro-3aH-cyclopenta[b]furan-3,3a-diol], for which the response was half-maximal at 18.6 nM (EC50).

For the compound `Nc1ncnc2c1ccn2[C@@H]1O[C@@H]2[C@@H](Oc3ccc4ccc(NCC5CC5)nc4c3)CC[C@]2(O)[C@H]1O` [Example 58, (2R,3R,3aS,6S,6aR)-2-(4-amino-7H-pyrrolo[2,3-d]pyrimidin-7-yl)-6-((2-((cyclopropylmethyl)amino)quinolin-7-yl)oxy)hexahydro-3aH-cyclopenta[b]furan-3,3a-diol], the EC50 stood at 1 nM.

On to `Cc1ncnc2c1ccn2[C@@H]1O[C@@H]2[C@H](Cc3ccc4cc(Cl)c(N)nc4c3F)CC[C@]2(O)[C@H]1O` [Example 22, (2R,3R,3aS,6S,6aR)-6-[(2-amino-3-chloro-8-fluoroquinolin-7-yl)methyl]-2-(4-methyl-7H-pyrrolo[2,3-d]pyrimidin-7-yl)hexahydro-3aH-cyclopenta[b]furan-3,3a-diol], for which the EC50 was 30 nM.

The compound `Cc1ncnc2c1ccn2[C@@H]1O[C@@H]2[C@H](Oc3ccc4cc(Br)c(N)nc4c3)CC[C@]2(O)[C@H]1O` [Example 129, (2R,3R,3aS,6R,6aR)-6-((2-amino-3-bromoquinolin-7-yl)oxy)-2-(4-methyl-7H-pyrrolo[2,3-d]pyrimidin-7-yl)hexahydro-3aH-cyclopenta[b]furan-3,3a-diol] returned an EC50 of 10000 nM.

As for `C[C@@]1(O)[C@@H](COc2ccc3cc(Br)c(N)nc3c2)C[C@@H](n2ccc3c(N)ncnc32)[C@@H]1O` [Example 2], the EC50 turned out to be 0.7 nM.

The compound `Cc1cn([C@@H]2C[C@@H]3[C@H](Cc4ccc5cc(F)c(N)nc5c4)CC[C@]3(O)[C@H]2O)c2ncnc(N)c12` [Example 38, (1S,2R,3aR,4S,6aR)-4-((2-amino-3-fluoroquinolin-7-yl)methyl)-2-(4-amino-5-methyl-7H-pyrrolo[2,3-d]pyrimidin-7-yl)hexahydropentaiene-1,6a(1H)-diol] had a concentration giving a half-maximal response (EC50) of 0.6 nM.

Compound `Cc1ncnc2c1ccn2[C@@H]1O[C@@H]2[C@@H](Oc3ccc4cc(C(F)F)c(N)nc4c3)CC[C@]2(O)[C@H]1O` [Example 115, (2R,3R,3aS,6S,6aR)-6-((2-amino-3-(difluoromethyl)quinolin-7-yl)oxy)-2-(4-methyl-7H-pyrrolo[2,3-d]pyrimidin-7-yl)hexahydro-3aH-cyclopenta[b]furan-3,3a-diol] returned an EC50 of 13.6 nM.

In turn, `Cc1ncnc2c1ccn2[C@@H]1C[C@@H]2[C@H](Cc3ccc4cc(F)c(N)nc4c3)CC[C@]2(O)[C@H]1O` [Example 16, (1S,2R,3aR,4S,6aR)-4-((2-amino-fluoroquinolin-7-yl)methyl)-2-(4-methyl-7H-pyrrolo[2,3-d]pyrimidin-7-yl)hexahydropentalene-1,6a(1H)-diol] had an EC50 of 0.9 nM.

Compound `Nc1nc2cc(O[C@H]3CC[C@@]4(O)[C@@H]3C[C@@H](n3ccc5c(N)ncnc53)[C@@H]4O)ccc2cc1Br` [Example 119, (1S,2R,3aR,4S,6aR)-4-((2-amino-3-bromoquinolin-7-yl)oxy)-2-(4-amino-7H-pyrrolo[2,3-d]pyrimidin-7-yl)hexahydropentalene-1,6a(1H)-diol 2,2,2-trifluoroacetate] displayed an EC50 of 180 nM.

`Cc1ncnc2c1ccn2[C@@H]1O[C@@H]2[C@@H](Oc3ccc4ccc(N)nc4c3)CC[C@]2(O)[C@H]1O` [Example 113, (2R,3R,3aS,6S,6aR)-6-((2-aminoquinolin-7-yl)oxy)-2-(4-methyl 7H-pyrrolo[2,3-d]pyrimidin-7-yl)hexahydro-2H-cyclopenta[b]furan-3,3a-diol]: a half-maximal response (EC50) required 1.8 nM.

`COc1ncnc2c1ccn2[C@@H]1O[C@](C)(COc2ccc3cc(Br)c(N)nc3c2)[C@@H](O)[C@H]1O` [Example 12, (2R,3S,4R,5R)-2-(((2-amino-3-bromoquinolin-7-yl)oxy)methyl)-5-(4-methoxy-7H-pyrrolo[2,3-d]pyrimidin-7-yl)-2-methyltetrahydrofuran-3,4-diol] displayed an EC50 of 10000 nM.

As for `Nc1nc2cc(C[C@@H]3OC[C@@]4(O)[C@@H]3O[C@@H](n3ccc5c(N)ncnc53)[C@@H]4O)ccc2cc1Br` [Example 136, (2R,3R,3aS,6S,6aR)-6-((2-amino-3-bromoquinolin-7-yl)methyl)-2-(4-amino-7H-pyrrolo[2,3-d]pyrimidin-7-yl)tetrahydrofuro[3,4-b]furan-3,3a(4H)-diol], the EC50 worked out at 0.4 nM.

With `Cc1ncnc2c1ccn2[C@@H]1O[C@@H]2[C@@H](Cc3ccc4cc(Cl)c(N)nc4c3)CC[C@]2(O)[C@H]1O` [Example 131, (2R,3R,3aS,6R,6aR)-6-((2-amino-3-chloroquinolin-7-yl)methyl)-2-(4-methyl-7H-pyrrolo[2,3-d]pyrimidin-7-yl)hexahydro-3aH-cyclopenta[b]furan-3,3a-diol], the concentration giving a half-maximal response (EC50) came out at 21.3 nM.

With `Cc1ncnc2c1ccn2[C@@H]1O[C@@H]2[C@H](Cc3ccc4cc(F)c(N)nc4c3)CC[C@]2(O)[C@H]1O` [Example 123, (2R,3R,3aS,6S,6aR)-6-((2-amino-3-fluoroquinolin-7-yl)methyl)-2-(4-methyl-7H-pyrrolo[2,3-d]pyrimidin-7-yl)hexahydro-3aH-cyclopenta[b]furan-3,3a-diol], the EC50 was found to be 13.1 nM.

`Nc1nc2cc(C[C@@H]3CC[C@@]4(O)[C@@H]3O[C@@H](n3ccc5c(C6CC6)ncnc53)[C@@H]4O)ccc2cc1Br` [Example 87, (2R,3R,3aS,6S,6aR)-6-((2-amino-3-bromoquinolin-7-yl)methyl)-2-(4-cyclopropyl-7H-pyrrolo[2,3-d]pyrimidin-7-yl)hexahydro-3aH-cyclopenta[b]furan-3,3a-diol] came in with an EC50 of 22.9 nM.

Compound `Nc1ccc2ccc(O[C@H]3CC[C@@]4(O)[C@@H]3O[C@@H](n3ccc5c(N)ncnc53)[C@@H]4O)cc2n1` [Example 104, (2R,3R,3aS,6S,6aR)-2-(4-amino-7H-pyrrolo[2,3-d]pyrimidin-7-yl)-6-((2-aminoquinolin-7-yl)oxy)hexahydro-2H-cyclopenta[b]furan-3,3a-diol] showed an EC50 of 7 nM.

`Cc1nc(C)c2ccn([C@@H]3O[C@@H]4[C@H](Cc5ccc6cc(Cl)c(N)nc6c5)CC[C@]4(O)[C@H]3O)c2n1` [Example 91, (2R,3R,3aS,6S,6aR)-6-((2-amino-3-chloroquinolin-7-yl)methyl)-2-(2,4-dimethyl-7H-pyrrolo[2,3-d]pyrimidin-7-yl)hexahydro-3aH-cyclopenta[b]furan-3,3a-diol] had an EC50 of 6.3 nM.

The compound `C[C@]1(COc2ccc3cccnc3c2)O[C@@H](n2ccc3c(N)ncnc32)[C@H](O)[C@@H]1O` [Example 98, (2R,3S,4R,5R)-5-(4-amino-7H-pyrrolo[2,3-d]pyrimidin-7-yl)-2-methyl-2-((quinolin-7-yloxy)methyl)tetrahydrofuran-3,4-diol] came in with a concentration giving a half-maximal response (EC50) of 272 nM.

`CNc1ncnc2c1ccn2[C@@H]1O[C@@H]2[C@H](Cc3ccc4cc(Br)c(N)nc4c3)CC[C@]2(O)[C@H]1O` [Example 92]: the EC50 is 9.9 nM.

With `Cc1ncnc2c1ccn2[C@@H]1O[C@@H]2[C@@H](Oc3ccc4cc5c(nc4c3)NCC5)CC[C@]2(O)[C@H]1O` [Example 89, (2R,3R,3aS,6S,6aR)-6-((2,3-dihydro-1H-pyrrolo[2,3-b]quinolin-7-yl)oxy)-2-(4-methyl-7H-pyrrolo[2,3-d]pyrimidin-7-yl)hexahydro-3aH-cyclopenta[b]furan-3,3a-diol], the EC50 was found to be 4.4 nM.
